Source: PubChem BioAssay AID248 (DTP/NCI, 2004)
Inconclusive results and toxic doses are left out. Cut-off read from the data, not from the text of the source: active = T/C of 150% or more; inactive = T/C below 125%.

Tested on: L1210 leukemia ip in BDF1 mice, survival T/C
Experiment: NCI In Vivo Anticancer Drug Screen. Data for tumor model L1210 Leukemia (intraperitoneal) in B6D2F1 (BDF1) mice
Conditions: endpoint: mean survival time, higher = longer survival
Method in brief: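 Survival endpoint. Drug-treated group vs vehicle group, expressed as T divided by C. Tumor passaged by transplantation.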

[1] = dose: 25.0 mg/kg/injection, schedule: Q04DX003 (ip), vehicle: Klucel (hydroxypropylcellulose) (HPC)
[2] = dose: 50.0 mg/kg/injection, schedule: Q04DX003 (ip), vehicle: Klucel (hydroxypropylcellulose) (HPC)
[3] = dose: 100.0 mg/kg/injection, schedule: Q01DX001 (ip), vehicle: Klucel (hydroxypropylcellulose) (HPC)
[4] = dose: 100.0 mg/kg/injection, schedule: Q04DX003 (ip), vehicle: Klucel (hydroxypropylcellulose) (HPC)
[5] = dose: 200.0 mg/kg/injection, schedule: Q01DX001 (ip), vehicle: Klucel (hydroxypropylcellulose) (HPC)
[6] = dose: 200.0 mg/kg/injection, schedule: Q04DX003 (ip), vehicle: Klucel (hydroxypropylcellulose) (HPC)
[7] = dose: 400.0 mg/kg/injection, schedule: Q01DX001 (ip), vehicle: Klucel (hydroxypropylcellulose) (HPC)
[8] = dose: 25.0 mg/kg/injection, schedule: Q04DX003 (ip), vehicle: saline
[9] = dose: 50.0 mg/kg/injection, schedule: Q04DX003 (ip), vehicle: saline
[10] = dose: 100.0 mg/kg/injection, schedule: Q04DX003 (ip), vehicle: saline with Tween-80
[11] = dose: 200.0 mg/kg/injection, schedule: Q04DX003 (ip), vehicle: saline with Tween-80
[12] = dose: 50.0 mg/kg/injection, schedule: Q01DX001 (ip), vehicle: saline
[13] = dose: 100.0 mg/kg/injection, schedule: Q01DX001 (ip), vehicle: saline
[14] = dose: 200.0 mg/kg/injection, schedule: Q01DX001 (ip), vehicle: saline
[15] = dose: 400.0 mg/kg/injection, schedule: Q01DX001 (ip), vehicle: saline
[16] = dose: 100.0 mg/kg/injection, schedule: Q01DX009 (ip), vehicle: acetone
[17] = dose: 12.5 mg/kg/injection, schedule: Q04DX003 (ip), vehicle: saline
[18] = dose: 400.0 mg/kg/injection, schedule: Q04DX003 (ip), vehicle: Klucel (hydroxypropylcellulose) (HPC)
[19] = dose: 25.0 mg/kg/injection, schedule: Q01DX009 (ip), vehicle: saline
[20] = dose: 50.0 mg/kg/injection, schedule: Q01DX009 (ip), vehicle: saline
[21] = dose: 100.0 mg/kg/injection, schedule: Q01DX009 (ip), vehicle: Klucel (hydroxypropylcellulose) (HPC)

Measured: T/C

CCCCCCCCCCCCCCCCNC(=S)Nc1ccc(C(=O)O)cc1
inactive: dose: 12.0 mg/kg/injection, schedule: Q04DX003 (ip), vehicle: Klucel (hydroxypropylcellulose) (HPC) 94 % of control | [1] 104 % of control | [2] 102 % of control | [3] 95 % of control | [4] 96 % of control | [5] 101 % of control | [6] 93 % of control | [7] 105 % of control

Nc1ncnc2[nH]c(=O)[nH]c12
inactive: [8] 105 % of control | [9] 102 % of control | dose: 100.0 mg/kg/injection, schedule: Q04DX003 (ip), vehicle: saline 98 % of control

OCCOc1c(Cl)c(Cl)c(Cl)c(Cl)c1Cl
inactive: dose: 50.0 mg/kg/injection, schedule: Q01DX009 (ip), vehicle: saline with Tween-80 101 % of control | dose: 100.0 mg/kg/injection, schedule: Q01DX009 (ip), vehicle: saline with Tween-80 94 % of control | [10] 102 % of control | dose: 200.0 mg/kg/injection, schedule: Q01DX009 (ip), vehicle: saline with Tween-80 103 % of control | [11] 97 % of control

CC(=O)ONC(=O)C(N)=O
inactive: [12] 95 % of control | [13] 101 % of control | [14] 95 % of control | [15] 103 % of control

C[Si]1(C)CCCSC1
inactive: [13] 93 % of control | [14] 96 % of control | [15] 97 % of control

O=C1CCCC(=O)N1.[Tl]
inactive: dose: 3.12 mg/kg/injection, schedule: Q04DX003 (ip), vehicle: water 108 % of control | dose: 6.25 mg/kg/injection, schedule: Q04DX003 (ip), vehicle: water 102 % of control | dose: 12.5 mg/kg/injection, schedule: Q04DX003 (ip), vehicle: water 96 % of control

CCCCCCCCCCCCCSCCCCCCSCCCCCCCCCCCCC
inactive: [3] 89 % of control | [5] 96 % of control | [7] 98 % of control

O=[N+]([O-])c1cc2c(cc1/C=N/N=C1c3ccccc3-c3ccccc31)OCO2
inactive: dose: 75.0 mg/kg/injection, schedule: Q01DX001 (ip), vehicle: other 94 % of control | dose: 150.0 mg/kg/injection, schedule: Q01DX001 (ip), vehicle: other 92 % of control

C[C@]12C(=O)OC(=O)[C@H]1[C@H]1CC[C@@H]2C1
inactive: [13] 110 % of control | [16] 102 % of control | dose: 100.0 mg/kg/injection, schedule: Q04DX003 (ip), vehicle: acetone 104 % of control | [14] 106 % of control | dose: 200.0 mg/kg/injection, schedule: Q01DX009 (ip), vehicle: acetone 89 % of control | dose: 200.0 mg/kg/injection, schedule: Q04DX003 (ip), vehicle: acetone 101 % of control | [15] 111 % of control | dose: 400.0 mg/kg/injection, schedule: Q04DX003 (ip), vehicle: acetone 104 % of control

O=C1OCC(Cl)=C1Cl
inactive: dose: 6.25 mg/kg/injection, schedule: Q04DX003 (ip), vehicle: saline 101 % of control | [17] 101 % of control | [8] 103 % of control

Cc1ccc(-n2c(=O)c(N=Nc3ccccc3C)c(O)n(-c3ccccc3C)c2=S)cc1
inactive: dose: 37.5 mg/kg/injection, schedule: Q01DX001 (ip), vehicle: Klucel (hydroxypropylcellulose) (HPC) 95 % of control | dose: 75.0 mg/kg/injection, schedule: Q01DX001 (ip), vehicle: Klucel (hydroxypropylcellulose) (HPC) 103 % of control | dose: 150.0 mg/kg/injection, schedule: Q01DX001 (ip), vehicle: Klucel (hydroxypropylcellulose) (HPC) 100 % of control

CCCCCCCCCCCCCCOc1ccc(C(=O)CC(=O)OC)cc1
inactive: [4] 90 % of control | [6] 98 % of control | [18] 90 % of control

Cc1cc[c]([Hg][c]2ccc(C)cc2)cc1
inactive: [4] 97 % of control | [6] 103 % of control | [18] 94 % of control

O=C(c1ccccc1)c1ccc2c3c(cccc13)C(=O)c1ccccc1-2
inactive: dose: 100.0 mg/kg/injection, schedule: Q01DX001 (ip), vehicle: saline with Tween-80 92 % of control | dose: 200.0 mg/kg/injection, schedule: Q01DX001 (ip), vehicle: saline with Tween-80 92 % of control | dose: 400.0 mg/kg/injection, schedule: Q01DX001 (ip), vehicle: saline with Tween-80 88 % of control

O=[N+]([O-])c1ccc(-[n+]2ccccc2)c([N+](=O)[O-])c1
inactive: dose: 18.75 mg/kg/injection, schedule: Q01DX009 (ip), vehicle: saline 105 % of control | [19] 105 % of control | dose: 37.5 mg/kg/injection, schedule: Q01DX009 (ip), vehicle: saline 103 % of control | [20] 103 % of control | dose: 75.0 mg/kg/injection, schedule: Q01DX009 (ip), vehicle: saline 102 % of control | dose: 100.0 mg/kg/injection, schedule: Q01DX009 (ip), vehicle: saline 102 % of control | dose: 150.0 mg/kg/injection, schedule: Q01DX009 (ip), vehicle: saline 112 % of control

CC(Cc1ccccc1)NC(C#N)c1ccccc1 (centres undefined)
inactive: dose: 12.5 mg/kg/injection, schedule: Q01DX009 (ip), vehicle: Klucel (hydroxypropylcellulose) (HPC) 107 % of control | dose: 25.0 mg/kg/injection, schedule: Q01DX009 (ip), vehicle: Klucel (hydroxypropylcellulose) (HPC) 88 % of control | [1] 98 % of control | dose: 25.0 mg/kg/injection, schedule: Q04DX003 (ip), vehicle: saline with Tween-80 97 % of control | dose: 50.0 mg/kg/injection, schedule: Q01DX009 (ip), vehicle: Klucel (hydroxypropylcellulose) (HPC) 91 % of control | [2] 109 % of control | dose: 50.0 mg/kg/injection, schedule: Q04DX003 (ip), vehicle: saline with Tween-80 100 % of control | [21] 96 % of control | [4] 109 % of control | [10] 92 % of control | [6] 101 % of control

CCC(CC)(CC)OC(=O)NS(=O)(=O)c1ccc(Cl)cc1
inactive: [16] 107 % of control | [10] 120 % of control | [11] 104 % of control | dose: 400.0 mg/kg/injection, schedule: Q04DX003 (ip), vehicle: saline with Tween-80 109 % of control

C=C(Cl)C[N+]12CN3CN(CN(C3)C1)C2
inactive: dose: 12.5 mg/kg/injection, schedule: Q01DX009 (ip), vehicle: saline 108 % of control | [17] 102 % of control | [19] 101 % of control | [8] 104 % of control | [20] 111 % of control | [9] 102 % of control

Cc1ccc(Cl)cc1NC(=O)C(c1ccccc1)c1ccccc1
inactive: [21] 95 % of control | [4] 90 % of control | dose: 200.0 mg/kg/injection, schedule: Q01DX009 (ip), vehicle: Klucel (hydroxypropylcellulose) (HPC) 94 % of control | [6] 96 % of control | dose: 400.0 mg/kg/injection, schedule: Q01DX009 (ip), vehicle: Klucel (hydroxypropylcellulose) (HPC) 95 % of control | [18] 88 % of control

CCC(CO)NC1CCCCC1 (centres undefined)
inactive: dose: 75.0 mg/kg/injection, schedule: Q01DX001 (ip), vehicle: carboxymethylcellulose (CMC) 88 % of control

CC(=O)Oc1c(N)c(C)cc(C)c1F
inactive: dose: 6.0 mg/kg/injection, schedule: Q01DX001 (ip), vehicle: Klucel (hydroxypropylcellulose) (HPC) 92 % of control | dose: 12.0 mg/kg/injection, schedule: Q01DX001 (ip), vehicle: Klucel (hydroxypropylcellulose) (HPC) 92 % of control | dose: 25.0 mg/kg/injection, schedule: Q01DX001 (ip), vehicle: Klucel (hydroxypropylcellulose) (HPC) 110 % of control

COc1ccc(/C=C2\N=C(c3cccc([N+](=O)[O-])c3)OC2=O)cc1OC
inactive: dose: 100.0 mg/kg/injection, schedule: Q04DX002 (ip), vehicle: Klucel (hydroxypropylcellulose) (HPC) 89 % of control | dose: 200.0 mg/kg/injection, schedule: Q04DX002 (ip), vehicle: Klucel (hydroxypropylcellulose) (HPC) 110 % of control | dose: 400.0 mg/kg/injection, schedule: Q04DX002 (ip), vehicle: Klucel (hydroxypropylcellulose) (HPC) 100 % of control

CCCC1C2C(=O)N(c3ccccc3)C(=O)C2ON1c1ccccc1 (centres undefined)
inactive: [12] 104 % of control | [13] 98 % of control | [14] 101 % of control | [15] 106 % of control
